Measured values taken from patent publication US8017350B2, “Glimepiride- and insulin-induced glycosylphosphatidylinositol-specific phospholipase C regulation” (Sanofi-Aventis Deutschland GmbH, priority 2004, dated 2011).

Test system: pp59Lyn and IRS-1 in rat adipocytes
Experiment: Tyrosine phosphorylation of pp59Lyn and IRS-1
Format: cell-based
Conditions: GPI-2350; IRS-1 tyrosine phosphorylation and glucose transport
Procedure: Polypeptides separated by SDS-PAGE were transferred to polyvinylidene difluoride membranes using the semidry procedure as described in “Müller, G. et al., (2001) Mol. Cell. Biol. 21: 4553-4567”. Washed membranes were incubated with anti-caveolin-1 (1:2000), anti-pp59^Lyn (1:1250), anti-aP (1:500), anti-5′-Nuc (1:750) and anti-IRS-1 (1:2000) antibodies for 4 h at 15° C. Washed membranes were incubated with horseradish peroxidase-coupled secondary goat anti-mouse (1:2000) or goat anti-rabbit IgG (1:4000) antibodies. Labeled proteins were visualized by enhanced chemiluminescence.
FIG. 7: Effect of GPI-2350 on the glimepiride/insulin-induced activation of signaling proteins. Isolated rat adipocytes were treated (5 min, 37° C.) without or with GPI-2350 (Panels A, 50 μM; Panels B, increasing conc.) and then incubated (120 min, 37° C.) in the absence or presence of insulin (10 nM) or glimepiride (20 μM). IRS-1 and pp59^Lyn were immunoprecipitated from the defatted postnuclear infranatant (see Materials and Methods) and solubilized combined hc/lcDIGs, respectively, and then immunoblotted for phosphotyrosine. […]

Structure (SMILES): CCCCCCCCCCCCP1(=O)O[C@@H]2[C@H](O)[C@@H](O)[C@H](O)[C@@H](O)[C@@H]2O1 (stereo partly shown) [GPI-2350, myo-inositol-1,2-cyclo-dodecylphosphonic acid]
- effect on stimulation by other insulin-mimetic stimuli: neither IRS-1 tyrosine phosphorylation nor glucose transport (Tab. 3) by these stimuli was affected significantly
